Article PMC3546743 (2012)

System: modified aptamer M3.2 (DNA, aptamer) ACTCATCTGTGAAGAGAAGCAGCACAGAGGTCAGATGTCCGTCAGCCCCGATCGCCATCCAGGGACTCCCCCCTATGCCTATGCGTGCTACCGTGAA
Assay: gold nanoparticle colorimetric assay, UV-Vis
Details: 250 mM NaCl; 1 µL of 50 mM compound in DMF added; room temperature; thiol oligos on gold nanoparticles

| SMILES | binding |
| --- | --- |
| CC(C)[C@H]1C(=O)N2CCC[C@H]2[C@]2(O)O[C@](NC(=O)[C@@H]3C=C4c5cccc6[nH]cc(c56)C[C@H]4N(C)C3)(C(C)C)C(=O)N12 | no |
| CN1C[C@H](CNC(=O)OCc2ccccc2)C[C@@H]2c3cccc4c3c(cn4C)C[C@H]21 | yes |
| O=C(N[C@H](CO)[C@H](O)c1ccc([N+](=O)[O-])cc1)C(Cl)Cl | no |
| CN(C)Cc1c[nH]c2ccccc12 | no |
| NCCc1c[nH]c2ccccc12 | no |
| N[C@@H](Cc1c[nH]c2ccccc12)C(=O)O | no |
| CN1C[C@H](CN)C[C@@H]2c3cccc4c3c(cn4C)C[C@H]21 | yes |
